Patent publication US9469584B2, “Method for producing butanol using extractive fermentation” (Butamax Advanced Biofuels LLC, priority 2013, dated 2016)
Counter-ions that a name gives are not always drawn.

System: not listed separately
Assay: Density of the pure solvent
Format: physicochemical
Details: not given
Protocol: Wt % of isobutanol in each layer was reported. The density of the pure solvent was also reported. […] Wt. iBuOH (mg) was calculated by wt % i-BuOH×0.5×density of pure solvent. For the aqueous solutions the density of both the pure water and salt solutions were assumed to be 1.0 g/ml. Kd was calculated both from concentration of i-BuOH in the organic/concentration of i-BuOH in the aqueous layer. It was calculated both from the w/w data and w/v data. The sum of the amounts of isobutanol found in both layers was calculated as a check on the data.

Molecule	density
nonyl phenol	0.937 g/mL
Xylene	0.879 g/mL
CCCCCCCCOC(=O)c1ccccc1C(=O)OCCCCCCCC [Dioctyl phthlate]	0.985 g/mL
CCCCCl [chlorobutane]	0.886 g/mL

Same assay, conditions: pure solvent

Molecule	density
CCCCCCOC(=O)c1ccccc1O [hexyl salicylate]	1.04 g/mL
CCCCC(CC)COC(=O)CCCCC(=O)OCC(CC)CCCC (stereo not drawn) [bis(2-ethylhexyl)adipate]	0.925 g/mL
CC(C)CCCC(C)CCO (stereo not drawn) [3,7-dimethyl-1-octanol]	0.828 g/mL
CCCCC(CC)COC(=O)/C=C\C(=O)OCC(CC)CCCC (stereo not drawn) [Bis(2-ethylhexyl) maleate]	0.944 g/mL
CCCCC(CC)COP(=O)(O)OCC(CC)CCCC (stereo not drawn) [Bis(2-ethylhexyl) phosphate]	0.965 g/mL
CC(CCO)CC(C)(C)C (stereo not drawn) [3,5,5-trimethyl-1-hexanol]	0.824 g/mL
CCCCCCCCOC(=O)c1ccc(C(=O)OCCCCCCCC)cc1 [dioctyl terephthalate]	0.986 g/mL

Results, then the molecule that gave them:

density	Molecule
1.2 g/mL	CC1COC(=O)O1 (stereo not drawn) [propylene carbonate]
0.914 g/mL	CCCCC(CC)COC(=O)CCCCCCCCC(=O)OCC(CC)CCCC (stereo not drawn) [bis(2-ethylhexyl)sebacate]
0.836 g/mL	CCCCCCCCC(CO)CCCCCC (stereo not drawn) [2-Hexyl-1-decanol (Isofol 16), 2-Hexyl-1-decanol]
0.849 g/mL	CCCCCCCC/C=C\CCCCCCCCO [oleyl alcohol, reference compound]
0.89 g/mL	CC(C)=CCCC(C)=CCCC(C)=CCO [Farnesol]
0.78 g/mL	CC(C)CCOCCC(C)C [i-Amyl Ether]
0.793 g/mL	CCCCCCOCCCCCC [Hexyl Ether]
0.833 g/mL	CCCCCCC(CO)CCCC (stereo not drawn) [2-butyl-1-octanol]
0.833 g/mL	CCCCC(CC)CO (stereo not drawn) [2-Ethyl-1-hexanol]
0.855 g/mL	CCCCCCCCCCCC(=O)OCCCC [butyl dodecanoate]

System: ethanologen (Ethanol Red)
Assay: not given
Details: not given

Molecule	Glucose (g/L) 5.00 hrs Run 1	Glucose (g/L) 5.00 hrs Run 2	Glucose (g/L) […] Run 1	Glucose (g/L) […] Run 2
nonyl phenol	20.3/20.3 g/L	20.3/20.3 g/L	20.6/20.0 g/L	20.6/20.0 g/L
CCCCC(CC)COP(=O)(O)OCC(CC)CCCC (stereo not drawn) [Bis(2-ethylhexyl) phosphate]	20.3/20.6 g/L	20.3/20.6 g/L	20.0/20.2 g/L	20.0/20.2 g/L

Same assay, conditions: Saccharomyces cerevisiae

Molecule	Glucose (g/L) 5.50 hrs Run 1	Glucose (g/L) 5.50 hrs Run 2	Glucose (g/L) […] Run 1	Glucose (g/L) […] Run 2
CCCCC(CC)COC(=O)CCCCC(=O)OCC(CC)CCCC (stereo not drawn) [bis(2-ethylhexyl)adipate]	0.0/0.0 g/L	0.0/0.0 g/L	0.0/0.0 g/L	0.0/0.0 g/L
